Measured values taken from article PMC5011342, “A high throughput drug screening assay to identify compounds that promote oligodendrocyte differentiation using acutely dissociated and purified oligodendrocyte precursor cells” (BMC Research Notes, 2016).
Where two headings read alike, the source gives them in different places.

Columns and labels:
[1] = test system: acutely dissociated and purified rat OPCs; test: Acute OL differentiation assay (MBP expression/cell, immunofluorescent image quantification); format: cell-based
How it was run: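 Oligodendrocyte precursor cells were enriched from P6-P7 Sprague–Dawley rat brains by immunopanning (RAN-2 and GalC depletion, O4 selection), plated at 5000 cells/well in serum-free, mitogen-free differentiation media on PDL/laminin 96-well view plates, centrifuged at 200×g, and pre-incubated 1–2 h before test compounds were added in quadruplicate. On DIV4, cells were fixed, stained for MBP and DAPI, imaged automatically, and MBP expression per cell was quantified.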

expanded OPCs = test: cells; details: for viability at 0.1 µM / viability at 1 µM / viability at 10 µM: Rattus norvegicus, 72 h; for 0.1 µM (% DMSO) / 1 µM (% DMSO) / 10 µM (% DMSO): alamarBlue viability of expanded OPCs; for 0.1 µM (% DMSO): compound at 0.1 µM; for 1 µM (% DMSO): compound at 1 µM; for 10 µM (% DMSO): compound at 10 µM
How it was run: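 Expanded OPCs seeded at 10,000 cells/well in differentiation media, then exposed to NCC library compounds at 10, 1 and 0.1 µM (quadruplicate, 0.1% DMSO) for three days. Viability read as alamarBlue fluorescence (560/590 nm) after 4 h at 37 °C; tunicamycin 5 ng/ml served as toxicity control.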

[2] = Rattus norvegicus, test compound at 2 uM, MBP expression relative to quetiapine, NCC library screen, sheet "All OLga data", read-out: 2 uM (% Quet)
[3] = Rattus norvegicus, test compound at 2 uM, NCC library screen, sheet "All OLga data", relative to quetiapine, read-out: 2 uM (% Quet)
[4] = Rattus norvegicus, test compound at 10 uM, MBP expression relative to quetiapine, NCC library screen, sheet "All OLga data", read-out: 10 uM (% Quet)
[5] = Rattus norvegicus, test compound at 10 uM, NCC library screen, sheet "All OLga data", relative to quetiapine, read-out: 10 uM (% Quet)
[6] = read-out: 0.1 µM (% DMSO), alamarBlue viability, NCC library compound at 0.1 µM, sheet "All Tox data"
[7] = read-out: 1 µM (% DMSO), alamarBlue viability, NCC library compound at 1 µM, sheet "All Tox data"
[8] = read-out: 10 µM (% DMSO), alamarBlue viability, NCC library compound at 10 µM, sheet "All Tox data"
[9] = Rattus norvegicus, 2 uM test compound, relative to quetiapine, sheet "All OLga data", read-out: OL differentiation, 2 uM (% Quet)
[10] = Rattus norvegicus, 10 uM test compound, relative to quetiapine, sheet "All OLga data", read-out: OL differentiation, 10 uM (% Quet)
[11] = read-out: 0.1 µM (% DMSO), alamarBlue viability of expanded OPCs, compound at 0.1 µM, sheet All Tox data
[12] = read-out: 1 µM (% DMSO), alamarBlue viability of expanded OPCs, compound at 1 µM, sheet All Tox data
[13] = read-out: 10 µM (% DMSO), alamarBlue viability of expanded OPCs, compound at 10 µM, sheet All Tox data
[14] = Rattus norvegicus, 0.4 uM test compound, relative to quetiapine, sheet "All OLga data", read-out: OL differentiation, 0.4 uM (% Quet)

C[N+]1(C)CCC(OC(=O)C(O)(c2ccccc2)C2CCCC2)C1 (centres unmarked) [Glycopyrrolate]
activation at 2 µM [1, 2]: 26.7%
activation at 2 µM [1, 3]: 7.1%
activation at 10 µM [1, 4]: 27.6%
activation at 10 µM [1, 5]: 19.5%
viability at 0.1 µM (expanded OPCs; [6]): 96.7%
viability at 1 µM (expanded OPCs; [7]): 91.4%
viability at 10 µM (expanded OPCs; [8]): 115%
0.1 µM (% DMSO) (expanded OPCs; relative to DMSO control): 100.4 % DMSO
1 µM (% DMSO) (expanded OPCs; relative to DMSO control): 104.4 % DMSO
10 µM (% DMSO) (expanded OPCs; relative to DMSO control): 113.1 % DMSO

CC(C)(C)NCC(O)c1cc(O)cc(O)c1 (centres unmarked) [Terbutaline]
activation at 2 µM [1, 2]: 8.9%
activation at 10 µM [1, 4]: 12.1%
0.1 µM (% DMSO) (expanded OPCs; relative to DMSO control): 91.9 % DMSO
1 µM (% DMSO) (expanded OPCs; relative to DMSO control): 95.2 % DMSO
10 µM (% DMSO) (expanded OPCs; relative to DMSO control): 89.9 % DMSO

CN(C)CCCC1(c2ccc(F)cc2)OCc2cc(C#N)ccc21 (centres unmarked) [Nitalapram, reference compound]
activation at 2 µM [1, 9]: 33%
activation at 10 µM [1, 10]: 46.5%
activation at 2 µM [1, 2]: 30.4%
activation at 2 µM [1, 3]: 37.5%
activation at 10 µM [1, 4]: 6.5%
activation at 10 µM [1, 5]: 38.6%
EC50 ([1]; Rattus norvegicus, average EC50 for induction of OL differentiation from independent biological replicates, eight concentrations): 1100 nM
hit in OL differentiation assay, MRF-TMC ([1]; ● = confirmed hit in this paper's assay): ●
viability at 0.1 µM (expanded OPCs; [11]): 85.9%
viability at 0.1 µM (expanded OPCs; [6]): 95.9%
viability at 1 µM (expanded OPCs; [12]): 101%
viability at 1 µM (expanded OPCs; [7]): 94.9%
viability at 10 µM (expanded OPCs; [13]): 110%
viability at 10 µM (expanded OPCs; [8]): 91.9%
0.1 µM (% DMSO) (expanded OPCs; relative to DMSO control): 107.3 % DMSO
1 µM (% DMSO) (expanded OPCs; relative to DMSO control): 108.9 % DMSO
10 µM (% DMSO) (expanded OPCs; relative to DMSO control): 99.4 % DMSO

COc1cc(C)nc(-n2nc(C)cc2OC)n1 [Epirizole]
activation at 2 µM [1, 3]: -9.9%
activation at 10 µM [1, 5]: -10.5%
viability at 0.1 µM (expanded OPCs; [6]): 106%
viability at 1 µM (expanded OPCs; [7]): 110%
viability at 10 µM (expanded OPCs; [8]): 112%

CN(C)CCC(c1ccc(Cl)cc1)c1ccccn1 (centres unmarked) [Chlorpheniramine]
activation at 0.4 µM [1, 14]: 8.7%
activation at 2 µM [1, 9]: 10.5%
activation at 0.4 µM ([1]; Rattus norvegicus, test compound at 0.4 uM, NCC library screen, sheet "All OLga data", relative to quetiapine, read-out: 0.4 uM (% Quet)): -6.7%
activation at 2 µM [1, 3]: 7.6%
viability at 0.1 µM (expanded OPCs; [6]): 86.5%
viability at 1 µM (expanded OPCs; [7]): 77.7%
viability at 10 µM (expanded OPCs; [8]): 46.7%

CN(C)CCOC(c1ccc(Cl)cc1)c1ccccn1 (centres unmarked) [Carbinoxamine]
activation at 2 µM [1, 3]: 7.4%
activation at 10 µM [1, 5]: -28.8%
viability at 0.1 µM (expanded OPCs; [6]): 92.8%
viability at 1 µM (expanded OPCs; [7]): 73.8%
viability at 10 µM (expanded OPCs; [8]): 57.6%

COc1c2occc2cc2ccc(=O)oc12 [Methoxsalen]
activation at 2 µM [1, 2]: -13.9%
activation at 10 µM [1, 4]: -33.3%
0.1 µM (% DMSO) (expanded OPCs; relative to DMSO control): 88.8 % DMSO
1 µM (% DMSO) (expanded OPCs; relative to DMSO control): 90.5 % DMSO
10 µM (% DMSO) (expanded OPCs; relative to DMSO control): 85.4 % DMSO

Cc1nnc2n1-c1ccc(Cl)cc1C(c1ccccc1)=NC2 [Alprazolam]
activation at 2 µM [1, 9]: -12.2%
activation at 10 µM [1, 10]: -116%
viability at 0.1 µM (expanded OPCs; [11]): 102%
viability at 1 µM (expanded OPCs; [12]): 115%
viability at 10 µM (expanded OPCs; [13]): 139%

CC(N/C(=N\C#N)Nc1ccncc1)C(C)(C)C (centres unmarked) [Pinacidil]
activation at 2 µM [1, 3]: -0.57%
activation at 10 µM [1, 5]: 26.1%
viability at 0.1 µM (expanded OPCs; [6]): 90.8%
viability at 1 µM (expanded OPCs; [7]): 98.8%
viability at 10 µM (expanded OPCs; [8]): 93.6%

CSc1nc2cc(Cl)c(Oc3cccc(Cl)c3Cl)cc2[nH]1 [Triclabendazole]
activation at 0.4 µM [1, 14]: -13.1%
activation at 2 µM [1, 9]: -46.6%
viability at 0.1 µM (expanded OPCs; [11]): 96.9%
viability at 1 µM (expanded OPCs; [12]): 131%
viability at 10 µM (expanded OPCs; [13]): 11.1%

CC(C(=O)O)c1cccc(C(=O)c2ccccc2)c1 (centres unmarked) [Ketoprofen]
activation at 2 µM [1, 3]: 0.75%
activation at 10 µM [1, 5]: -29.2%
0.1 µM (% DMSO) (expanded OPCs; relative to DMSO control): 90.4 % DMSO
1 µM (% DMSO) (expanded OPCs; relative to DMSO control): 89.7 % DMSO
10 µM (% DMSO) (expanded OPCs; relative to DMSO control): 95.0 % DMSO

CC(=O)OCC(=O)[C@@]1(O)CC[C@H]2[C@@H]3C[C@H](C)C4=CC(=O)C=C[C@]4(C)[C@H]3[C@@H](O)C[C@@]21C [Methylprednisolone acetate]
activation at 2 µM [1, 2]: 3.6%
activation at 10 µM [1, 4]: -59.5%
0.1 µM (% DMSO) (expanded OPCs; relative to DMSO control): 106.9 % DMSO
1 µM (% DMSO) (expanded OPCs; relative to DMSO control): 104.6 % DMSO
10 µM (% DMSO) (expanded OPCs; relative to DMSO control): 95.3 % DMSO

CNCCCC12CCC(c3ccccc31)c1ccccc12 [Maprotiline]
activation at 0.4 µM [1, 14]: 15.2%
activation at 2 µM [1, 9]: -52.5%
viability at 0.1 µM (expanded OPCs; [11]): 78.2%
viability at 1 µM (expanded OPCs; [12]): 54.1%
viability at 10 µM (expanded OPCs; [13]): 13.8%

Cc1cnc(NC(=O)C2=C(O)c3ccccc3S(=O)(=O)N2C)s1 [Meloxicam]
activation at 2 µM [1, 2]: -8.5%
activation at 10 µM [1, 4]: 1.4%
0.1 µM (% DMSO) (expanded OPCs; relative to DMSO control): 93.1 % DMSO
1 µM (% DMSO) (expanded OPCs; relative to DMSO control): 94.6 % DMSO
10 µM (% DMSO) (expanded OPCs; relative to DMSO control): 86.1 % DMSO

O=C(O[C@@H]1C[C@@H]2C[C@H]3C[C@H](C1)N2CC3=O)c1c[nH]c2ccccc12 [Dolasetron]
activation at 2 µM [1, 3]: 4.6%
activation at 10 µM [1, 5]: 18.1%
viability at 0.1 µM (expanded OPCs; [6]): 81%
viability at 1 µM (expanded OPCs; [7]): 81.8%
viability at 10 µM (expanded OPCs; [8]): 63.4%

OCCN(CCO)c1nc(N2CCCCC2)c2nc(N(CCO)CCO)nc(N3CCCCC3)c2n1 [Dipyridamole]
activation at 2 µM [1, 3]: 13.5%
activation at 10 µM [1, 5]: -27.3%
0.1 µM (% DMSO) (expanded OPCs; relative to DMSO control): 107.4 % DMSO
1 µM (% DMSO) (expanded OPCs; relative to DMSO control): 102.2 % DMSO
10 µM (% DMSO) (expanded OPCs; relative to DMSO control): 87.5 % DMSO

CC(C(=O)O)c1ccc(CC2CCCC2=O)cc1 (centres unmarked) [loxoprofen]
activation at 2 µM [1, 9]: 3.1%
activation at 10 µM [1, 10]: 10.9%
viability at 0.1 µM (expanded OPCs; [6]): 99.8%
viability at 1 µM (expanded OPCs; [7]): 92.5%
viability at 10 µM (expanded OPCs; [8]): 87.6%

CN1CC[C@@H](c2ccc(F)cc2)[C@H](COc2ccc3c(c2)OCO3)C1 [N-Methylparoxetine]
OL differentiation, 0.4 uM (% Quet) ([1]; 0.4 uM test compound, relative to quetiapine, sheet "All OLga data"): -15.7 % Quet
OL differentiation, 2 uM (% Quet) ([1]; 2 uM test compound, relative to quetiapine, sheet "All OLga data"): -45.1 % Quet
0.1 µM (% DMSO) (expanded OPCs; sheet All Tox data): 86.7 % DMSO
1 µM (% DMSO) (expanded OPCs; sheet All Tox data): 60.7 % DMSO
10 µM (% DMSO) (expanded OPCs; sheet All Tox data): 18.7 % DMSO

O=C(O)COCCN1CCN(C(c2ccccc2)c2ccc(Cl)cc2)CC1 (centres unmarked) [Cetirizine]
activation at 2 µM [1, 3]: 9.7%
activation at 10 µM [1, 5]: 9.5%
viability at 0.1 µM (expanded OPCs; [6]): 92.3%
viability at 1 µM (expanded OPCs; [7]): 89.3%
viability at 10 µM (expanded OPCs; [8]): 87.4%

c1cnc(N2CCN(Cc3ccc4c(c3)OCO4)CC2)nc1 [Piribedil]
activation at 2 µM [1, 9]: 23.4%
activation at 10 µM [1, 10]: 29.9%
viability at 0.1 µM (expanded OPCs; [11]): 88.5%
viability at 1 µM (expanded OPCs; [12]): 100%
viability at 10 µM (expanded OPCs; [13]): 103%
